Here are results for twelve molecules from patent US20260248927A1, “TARGETED PROTEIN DEGRADATION USING BIFUNCTIONAL COMPOUNDS THAT BIND UBIQUITIN LIGASE AND TARGET MCL-1 PROTEIN” (Captor Therapeutics S.A., priority 2022, published 2026).

Molecules are shown by their SMILES.

Data set [1] can be described thus: Cell viability assay (CellTiter-Glo), ARH-77. In kind it is cell-based. The conditions noted are these: human, ARH-77 cells (lymphoblast-like, MCL-1 independent), ARH-77, 24 hours, 1% FBS, read-out: Average pCC50 by molecule ARH-77 (converted). An excerpt: (§1) The effect of various compounds of the invention on the viability of MV4-11 and ARH-77 cell lines was investigated, using the CTG protocol described below.
(§2) MV4-11 cell lines are derived from acute myeloid leukaemia and it is described in the literature as a MCL-1 dependent cell line, as opposed to lymphoblast-like ARH-77 cell line, which is described as independent of MCL-1 (Tron A E et al. Nat Commun. 2018; 9: 5341; Caenepeel S et al. Cancer Discov. 2018 December; 8(12): 1582-1597).
(§3) Cells (MV4-11 or ARH-77) were seeded on […] in a growth medium with 1% FBS. Next, compound stocks were pre-diluted in DMSO and added directly to the cell culture media (final DMSO concentration: 0.5%). Compound concentrations used in this assay: 1/3 dilutions starting at 30 μM (9 to 12 points). After 24 hours of incubation, cell viability was evaluated using CellTiter-Glo Luminescent Cell Viability Assay (Promega, cat #G7572). The luminescence signal was measured using a CLARIOstar Plus Multi-Mode Microplate Reader (574-590 nm).
(§4) Results were normalized to DMSO control. Collected data were analyzed using GraphPad Prism to calculate pCC50 values.

The target of data set [2] is [MCL-1]-[compound of formula (I)]—[CRBN/DDB1] (Homo sapiens, UniProt Q07820+Q96SW2). The experiment in a line: HTRF ternary complex formation assay. It is filed as binding. To be noted: hMcl-1 and CRBN, 180 min at 25° C.; read-out: HTRF ternary complex Average pEC50 by molecule (converted). The method, then: The effect of the bifunctional compounds of the invention on the formation of a ternary complex composed of [MCL-1]-[compound of formula (I)]—[CRBN/DDB1] was investigated with HTRF ternary complex assay.
Chain of [MCL-1]-[compound of formula (I)]—[CRBN/DDB1] (Q07820 whole entry): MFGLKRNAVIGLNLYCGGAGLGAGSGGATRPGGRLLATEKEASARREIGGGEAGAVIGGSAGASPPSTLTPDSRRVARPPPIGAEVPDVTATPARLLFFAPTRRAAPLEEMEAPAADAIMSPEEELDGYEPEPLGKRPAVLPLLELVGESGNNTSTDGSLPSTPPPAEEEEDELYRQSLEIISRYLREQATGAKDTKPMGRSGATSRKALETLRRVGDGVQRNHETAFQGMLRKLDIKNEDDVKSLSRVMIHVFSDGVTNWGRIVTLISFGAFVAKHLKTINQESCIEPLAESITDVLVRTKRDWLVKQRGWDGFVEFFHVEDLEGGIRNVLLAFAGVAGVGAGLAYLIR
Chain of [MCL-1]-[compound of formula (I)]—[CRBN/DDB1] (Q96SW2 whole entry): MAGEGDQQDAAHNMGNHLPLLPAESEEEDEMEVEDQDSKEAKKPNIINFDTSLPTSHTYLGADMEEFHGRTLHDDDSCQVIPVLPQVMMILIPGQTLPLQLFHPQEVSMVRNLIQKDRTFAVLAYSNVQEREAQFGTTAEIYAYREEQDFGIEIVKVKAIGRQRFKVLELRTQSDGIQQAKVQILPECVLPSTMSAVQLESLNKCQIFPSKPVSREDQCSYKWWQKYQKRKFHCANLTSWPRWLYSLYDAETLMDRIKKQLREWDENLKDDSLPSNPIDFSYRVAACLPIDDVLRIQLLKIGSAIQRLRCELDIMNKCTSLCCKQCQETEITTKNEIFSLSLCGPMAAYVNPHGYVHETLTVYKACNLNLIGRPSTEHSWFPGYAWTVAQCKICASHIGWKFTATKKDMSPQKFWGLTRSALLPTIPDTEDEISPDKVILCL
Chain of [MCL-1]-[compound of formula (I)]—[CRBN/DDB1] (Q16531 whole entry partner): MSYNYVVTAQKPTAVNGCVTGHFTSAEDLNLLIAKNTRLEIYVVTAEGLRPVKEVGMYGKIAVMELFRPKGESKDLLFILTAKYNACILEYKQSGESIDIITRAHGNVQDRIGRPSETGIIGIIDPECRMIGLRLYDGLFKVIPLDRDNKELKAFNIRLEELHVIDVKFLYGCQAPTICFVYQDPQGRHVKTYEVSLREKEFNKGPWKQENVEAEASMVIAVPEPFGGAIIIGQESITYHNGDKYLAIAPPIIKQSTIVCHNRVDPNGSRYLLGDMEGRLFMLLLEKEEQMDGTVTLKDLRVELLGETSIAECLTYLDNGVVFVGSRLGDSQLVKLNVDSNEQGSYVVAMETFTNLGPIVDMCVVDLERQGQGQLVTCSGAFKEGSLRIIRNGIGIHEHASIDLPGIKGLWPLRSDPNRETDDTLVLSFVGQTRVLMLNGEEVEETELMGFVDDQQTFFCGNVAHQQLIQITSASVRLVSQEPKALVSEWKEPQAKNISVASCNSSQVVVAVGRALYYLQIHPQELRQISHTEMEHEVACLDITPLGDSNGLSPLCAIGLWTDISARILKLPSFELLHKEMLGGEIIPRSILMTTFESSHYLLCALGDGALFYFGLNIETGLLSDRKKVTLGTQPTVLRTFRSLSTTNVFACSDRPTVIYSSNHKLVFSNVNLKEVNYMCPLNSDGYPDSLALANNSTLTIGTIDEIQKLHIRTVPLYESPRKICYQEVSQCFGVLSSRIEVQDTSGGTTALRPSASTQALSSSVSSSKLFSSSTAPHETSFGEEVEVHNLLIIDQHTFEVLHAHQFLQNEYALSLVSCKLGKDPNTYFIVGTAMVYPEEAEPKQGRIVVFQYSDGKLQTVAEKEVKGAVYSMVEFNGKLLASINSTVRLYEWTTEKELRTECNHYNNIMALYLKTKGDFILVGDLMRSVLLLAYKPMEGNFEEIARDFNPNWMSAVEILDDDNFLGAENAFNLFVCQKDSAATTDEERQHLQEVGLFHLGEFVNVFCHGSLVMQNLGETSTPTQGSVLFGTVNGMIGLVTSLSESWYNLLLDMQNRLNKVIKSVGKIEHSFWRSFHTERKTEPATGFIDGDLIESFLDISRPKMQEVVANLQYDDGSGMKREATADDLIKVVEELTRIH
Mix of protein solution was prepared: • 48 nM hMcl-1 and 105.6 nM CRBN were prepared in PPI Europium detection buffer with 2 mM DTT. • Acceptor and donor stock solutions were diluted 100 times in PPI Europium detection buffer. Equal volumes of both reagents were mixed. Finally giving 3 nM of Streptavidin-Eu cryptate ([…]) and 6.67 nM of Anti-6×his-d2 ([…]).
5 μl of protein mix was dispensed to all wells. The tested compounds in dose-response were dispensed onto a white 384-well low volume plate (Greiner, 784075). DMSO was backfilled to all wells, resulting in a final DMSO content of 0.5%. Wells containing only DMSO served as a background. Next, 5 μl of solution with donor and acceptor was added to the wells.
The plate was sealed with transparent film and shaken using a VibroTurbulator for 60 sec at level 3. The plate was then spun down shortly (10 s, 1000 rcf) and incubated at 25° C. for 180 min.
The read-out was performed with plate reader (Pherastar, BMG Labtech) in time resolved fluorescence mode. Filterset: TR 337 665 620.
The results were analyzed as follows: • 1) an average of fluorescence for background signal was calculated and used as a negative control; • 2) raw fluorescence values for tested compounds were normalized against negative controls; • 3) bell shape curve was fitted to a gaussian distribution using a non-linear least squares Gauss-Newton algorithm; • 4) EC50 and pEC50 values were determined.

Data set [3] has as its system MV4-11 cells. The experiment in a line: Cell viability assay (CellTiter-Glo), MV4-11. It is filed as cell-based. To be noted: Homo sapiens, MV4-11, 24 hours, 1% FBS, read-out: Average pCC50 by molecule MV4-11 (converted).
Text: as §1, §2, §3, §4

In the case of `Cc1nn(C)c(C)c1-c1c(Cl)ccc2c(CCCOc3cccc4cc(F)ccc34)c(C(=O)O)n(CCN3CCC(CN4CCN(c5ccc6c(c5)C(C)N(C5CCC(=O)NC5=O)C6=O)CC4)CC3)c12` (mixture of isomers) [Compound 145, 6-Chloro-1-(2-(4-((4-(2-(2,6-dioxopiperidin-3-yl)-3-methyl-1-oxoisoindolin-5-yl)piperazin-1-yl)methyl)piperidin-1-yl)ethyl)-3-(3-((6-fluoronaphthalen-1-yl)oxy)propyl)-7-(1,3,5-trimethyl-1H-pyrazol-4-yl)-1H-indole-2-carboxylic acid], the CC50 at 24 h in data set [1] was > 10000 nM. Besides, in data set [2], the EC50 is < 31.6 nM. Further, the CC50 in data set [3] was < 100 nM.

As for `Cc1nn(C)c(C)c1-c1c(Cl)ccc2c(CCCOc3cccc4cc(F)ccc34)c(C(=O)O)n(CCN3CCN(C(=O)Cn4c(C)nc5c(C(=O)NC6CCC(=O)NC6=O)ccc(F)c54)CC3)c12` (stereo not shown) [Compound 1, 6-Chloro-1-(2-(4-(2-(4-((2,6-dioxopiperidin-3-yl)carbamoyl)-7-fluoro-2-methyl-1H-benzo[d]imidazol-1-yl)acetyl)piperazin-1-yl)ethyl)-3-(3-((6-fluoronaphthalen-1-yl)oxy)propyl)-7-(1,3,5-trimethyl-1H-pyrazol-4-yl)-1H-indole-2-carboxylic acid], the CC50 at 24 h in data set [1] was > 10000 nM. For the same molecule, the EC50 in data set [2] is < 100 nM. Further, in data set [3], the CC50 was < 100 nM.

On to `Cc1nc2c(C(=O)NC3CCC(=O)NC3=O)cc(OCC(=O)N3CCN(CCn4c(C(=O)O)c(CCCOc5cccc6cc(F)ccc56)c5ccc(Cl)c(-c6c(C)nn(C)c6C)c54)CC3)cc2[nH]1` (stereo not shown) [Compound 2, 6-Chloro-1-(2-(4-(2-((4-((2,6-dioxopiperidin-3-yl)carbamoyl)-2-methyl-1H-benzo[d]imidazol-6-yl)oxy)acetyl)piperazin-1-yl)ethyl)-3-(3-((6-fluoronaphthalen-1-yl)oxy)propyl)-7-(1,3,5-trimethyl-1H-pyrazol-4-yl)-1H-indole-2-carboxylic acid], for which, in data set [1], the CC50 at 24 h was > 10000 nM. For the same molecule, the EC50 in data set [2] was < 100 nM. Besides, in data set [3], the CC50 was < 100 nM.

On to `Cc1nc2c(C(=O)NC3CCC(=O)NC3=O)cc(OCCC(=O)N3CCN(CCn4c(C(=O)O)c(CCCOc5cccc6cc(F)ccc56)c5ccc(Cl)c(-c6c(C)nn(C)c6C)c54)CC3)cc2[nH]1` (stereo not shown) [Compound 3, 6-Chloro-1-(2-{4-[3-({4-[(2,6-dioxopiperidin-3-yl)carbamoyl]-2-methyl-1H-1,3-benzodiazol-6-yl}oxy)propanoyl]piperazin-1-yl}ethyl)-3-{3-[(6-fluoronaphthalen-1-yl)oxy]propyl}-7-(1,3,5-trimethyl-1H-pyrazol-4-yl)-1H-indole-2-carboxylic acid], for which, in data set [1], the CC50 at 24 h is > 31600 nM. Also, in data set [2], the EC50 was < 100 nM. The CC50 in data set [3] was < 100 nM.

`Cc1nc2ccc(C(=O)NCC(=O)N3CCN(CCn4c(C(=O)O)c(CCCOc5cccc6cc(F)ccc56)c5ccc(Cl)c(-c6c(C)nn(C)c6C)c54)CC3)cc2cc1C1CCC(=O)NC1=O` (stereo not shown) [Compound 5, 6-Chloro-1-{2-[4-(2-{[3-(2,6-dioxopiperidin-3-yl)-2-methylquinolin-6-yl]formamido}acetyl)piperazin-1-yl]ethyl}-3-{3-[(6-fluoronaphthalen-1-yl)oxy]propyl}-7-(1,3,5-trimethyl-1H-pyrazol-4-yl)-1H-indole-2-carboxylic acid]: the CC50 at 24 h in data set [1] is > 10000 nM. Moreover, the EC50 in data set [2] is < 100 nM.

`Cc1nn(C)c(C)c1-c1c(Cl)ccc2c(CCCOc3cccc4cc(F)ccc34)c(C(=O)O)n(CCN3CCN(C(=O)COc4cc(N(C)C)cc5c4CN(C4CCC(=O)NC4=O)C5=O)CC3)c12` (stereo not shown) [Compound 13, 6-Chloro-1-{2-[4-(2-{[6-(dimethylamino)-2-(2,6-dioxopiperidin-3-yl)-1-oxo-2,3-dihydro-1H-isoindol-4-yl]oxy}acetyl)piperazin-1-yl]ethyl}-3-{3-[(6-fluoronaphthalen-1-yl)oxy]propyl}-7-(1,3,5-trimethyl-1H-pyrazol-4-yl)-1H-indole-2-carboxylic acid]: in data set [1], the CC50 at 24 h was > 10000 nM. Besides, in data set [2], the EC50 is < 316 nM.

Consider `CCc1c(OCC(=O)N2CCN(CCn3c(C(=O)O)c(CCCOc4cccc5cc(F)ccc45)c4ccc(Cl)c(-c5c(C)nn(C)c5C)c43)CC2)cccc1C(=O)NC1CCC(=O)NC1=O` (stereo not shown) [Compound 24, 6-Chloro-1-{2-[4-(2-{3-[(2,6-dioxopiperidin-3-yl)carbamoyl]-2-ethylphenoxy}acetyl)piperazin-1-yl]ethyl}-3-{3-[(6-fluoronaphthalen-1-yl)oxy]propyl}-7-(1,3,5-trimethyl-1H-pyrazol-4-yl)-1H-indole-2-carboxylic acid], for which the CC50 at 24 h in data set [1] is > 10000 nM.

For `CCc1cc(OCC(=O)N2CCN(CCn3c(C(=O)O)c(CCCOc4cccc5cc(F)ccc45)c4ccc(Cl)c(-c5c(C)nn(C)c5C)c43)CC2)ccc1C(=O)NC1CCC(=O)NC1=O` (stereo not shown) [Compound 25, 6-Chloro-1-(2-(4-(2-(4-((2,6-dioxopiperidin-3-yl)carbamoyl)-3-ethylphenoxy)acetyl)piperazin-1-yl)ethyl)-3-(3-((6-fluoronaphthalen-1-yl)oxy)propyl)-7-(1,3,5-trimethyl-1H-pyrazol-4-yl)-1H-indole-2-carboxylic acid], the CC50 at 24 h in data set [1] was > 3160 nM.

On to `Cc1nn(C)c(C)c1-c1c(Cl)ccc2c(CCCOc3cccc4cc(F)ccc34)c(C(=O)O)n(CCN3CCN(CC(=O)NCc4ccc5c(c4)CN(C4CCC(=O)NC4=O)C5=O)CC3)c12` (stereo not shown) [Compound 26, 6-Chloro-1-(2-{4-[({[2-(2,6-dioxopiperidin-3-yl)-1-oxo-2,3-dihydro-1H-isoindol-5-yl]methyl}carbamoyl)methyl]piperazin-1-yl}ethyl)-3-{3-[(6-fluoronaphthalen-1-yl)oxy]propyl}-7-(1,3,5-trimethyl-1H-pyrazol-4-yl)-1H-indole-2-carboxylic acid], for which, in data set [1], the CC50 at 24 h is > 31600 nM. For the same molecule, the EC50 in data set [2] was < 100 nM.

Consider `Cc1cc(OCCCc2c(C(=O)O)n(CCN3CCN(CC(=O)NCc4ccc5c(c4)CN(C4CCC(=O)NC4=O)C5=O)CC3)c3c(-c4c(C)nn(C)c4C)c(Cl)ccc23)cc(C)c1Cl` (stereo not shown) [Compound 27, 6-Chloro-3-[3-(4-chloro-3,5-dimethylphenoxy)propyl]-1-(2-{4-[({[2-(2,6-dioxopiperidin-3-yl)-1-oxo-2,3-dihydro-1H-isoindol-5-yl]methyl}carbamoyl)methyl]piperazin-1-yl}ethyl)-7-(1,3,5-trimethyl-1H-pyrazol-4-yl)-1H-indole-2-carboxylic acid], for which, in data set [2], the EC50 is < 100 nM.

On to `Cc1nn(C)c(C)c1-c1c(Cl)ccc2c(CCCOc3cccc4cc(F)ccc34)c(C(=O)O)n(CCN3CCN(CC(=O)Nc4cccc5c4CN(C4CCC(=O)NC4=O)C5=O)CC3)c12` (stereo not shown) [Compound 29, 6-Chloro-1-{2-[4-({[2-(2,6-dioxopiperidin-3-yl)-1-oxo-2,3-dihydro-1H-isoindol-4-yl]carbamoyl}methyl)piperazin-1-yl]ethyl}-3-{3-[(6-fluoronaphthalen-1-yl)oxy]propyl}-7-(1,3,5-trimethyl-1H-pyrazol-4-yl)-1H-indole-2-carboxylic acid], for which the CC50 at 24 h in data set [1] was > 10000 nM. Besides, the EC50 in data set [2] is < 100 nM.

In the case of `Cc1nc2c(NCC(=O)N3CCN(CCn4c(C(=O)O)c(CCCOc5cccc6cc(F)ccc56)c5ccc(Cl)c(-c6c(C)nn(C)c6C)c54)CC3)cccc2cc1N1CCC(=O)NC1=O` [Compound 146, 6-Chloro-1-(2-(4-((3-(2,4-dioxotetrahydropyrimidin-1(2H)-yl)-2-methylquinolin-8-yl)glycyl)piperazin-1-yl)ethyl)-3-(3-((6-fluoronaphthalen-1-yl)oxy)propyl)-7-(1,3,5-trimethyl-1H-pyrazol-4-yl)-1H-indole-2-carboxylic acid], the EC50 in data set [2] was < 31.6 nM. Moreover, the CC50 in data set [3] is < 100 nM.
